Patent US8058417B2, “Biosynthetic pathway and genes required for tropodithietic acid biosynthesis in silicibacter TM1040” (priority 2006, dated 2011)
Converted amounts (≈) assume the structure as drawn.

Tests used:
[1] = system: Methicillin-resistant Staphylococcus aureus (MRSA) strain USA300; test: Minimal Inhibitory Concentration (MIC) of TDA against MRSA; type: cell-based
Excerpt: Against Methicillin-resistant Staphylococcus aureus (MRSA) strain USA300

Vibrio anguillarium = test: Minimal Inhibitory Concentration (MIC) of TDA against Vibrio anguillarium; type: cell-based; details: FIG. 12
Excerpt: FIG. 12 is a graph showing the efficacy of TDA against Vibrio anguillarum, as described in Example 10.

V. anguillarium [2] = test: Regrowth of V. anguillarium in fresh nutrient broth after TDA exposure (bactericidal test); type: cell-based, Vibrio anguillarium; details: 5 ug per ml (3x MIC) for 90 minutes, FIG. 13
Experimental: FIG. 13 is a graph showing the bactericidal character of TDA against Vibrio anguillarum, illustrating the results using control (squares; buffer only), control 0.001 (circles), TDA (triangles), and TDA 0.001 (inverted triangles), as described in Example 10. V. anguillarium was exposed to 5 ug TDS per ml (3× MIC) for 90 minutes, after which the cells were washed and suspended in fresh nutrient broth. […] The results, as set forth in the graph of FIG. 13 indicate that the activity of TDA is bactericidal for this bacterial species, not simply bacteristatic.

[3] = system: Mycobacterium tuberculosis strain H37Rv; test: Minimal Inhibitory Concentration (MIC) of TDA against Mycobacterium tuberculosis; type: cell-based
Excerpt: Against Mycobacterium tuberculosis strain H37Rv

V. anguillarium [4] = test: Swimming (motility) of V. anguillarium exposed to TDA; type: cell-based, Vibrio anguillarium; details: exposed to 5 ug TDA per ml (ca. 3x MIC)
Excerpt: It is unlikely that the mechanism of action of TDS involves inhibition of protein, DNA or RNA synthesis, transcription, or translation, all of which would require more time to inhibit.

`O=C(O)c1c(=O)cccc2ssc12` [TDA, tropodithietic acid] was tested, and the MIC [1] was 40 µg/mL (≈ 188 µM), the “Result in words: killing of MRSA” value [1] was “kills” and the MIC (Vibrio anguillarium) was 1.5 µg/mL (≈ 7.07 µM). For the same compound, the “Result in words: killing of V. anguillarium” value (Vibrio anguillarium) was “kills”, the “Character of activity (bactericidal vs bacteristatic)” value (V. anguillarium [2]) was “bactericidal” and the “Growth of exposed cells after washing and suspension in fresh nutrient broth” value (V. anguillarium [2]; control cells exposed to buffer grew normally) was “failed to grow”. The “Result in words: killing of M. tuberculosis” value [3] was “kills”, the MIC ([3]; M. tuberculosis strain H37Rv) was 7.8 µg/mL (≈ 36.7 µM) and the “Time until V. anguillarium stopped swimming” value (V. anguillarium [4]) was at most 70 s.
